According to article PMC5814754, “Quantitative, Wide-Spectrum Kinase Profiling in Live Cells for Assessing the Effect of Cellular ATP on Target Engagement” (Cell Chemical Biology, 2018):
Where two headings read alike, the source gives them in different places.

Tests used:
Experiment in all cases: NanoBRET single-dose fractional occupancy profiling of kinase/Nluc library in live HEK293 cells (Table S1)
Format in all cases: binding
Design in all cases: receptor occupancy: dose or concentration left out as unconfirmed; Occupancy, % Replicate 1 / Occupancy, % Replicate 2: unit of the concentration uncertain
[1] = biological target: 178 full-length kinases (Homo sapiens, UniProt O75460); conditions: ERN1, Nluc C, probe 5 at 1 (unit uncertain)
[2] = biological target: 178 full-length kinases (Homo sapiens, UniProt O94768); conditions: STK17B (NP_004217), Nluc orientation C, probe 1 at 1 (unit uncertain)
[3] = biological target: 178 full-length kinases (Homo sapiens, UniProt P09769); conditions: FGR, Nluc N, probe 6 at 0.5 (unit uncertain)
[4] = biological target: 178 full-length kinases (Homo sapiens, UniProt P10721); conditions: KIT, Nluc C, probe 6 at 0.1 (unit uncertain)
[5] = biological target: 178 full-length kinases (Homo sapiens, UniProt P22455); conditions: FGFR4, Nluc C, probe 5 at 1 (unit uncertain)
[6] = biological target: 178 full-length kinases (Homo sapiens, UniProt P27037); conditions: ACVR2A, Nluc C, probe 2 at 1 (unit uncertain)
[7] = biological target: 178 full-length kinases (Homo sapiens, UniProt P42681); conditions: TXK (NP_003319), Nluc orientation C, probe 6 at 0.1 (unit uncertain)
[8] = biological target: 178 full-length kinases (Homo sapiens, UniProt P42685); conditions: FRK, Nluc C, probe 6 at 0.5 (unit uncertain)
[9] = biological target: 178 full-length kinases (Homo sapiens, UniProt P54646); conditions: PRKAA2, Nluc N, probe 5 at 0.5 (unit uncertain)
[10] = biological target: 178 full-length kinases (Homo sapiens, UniProt P57059); conditions: SIK1 (NP_001307572), Nluc orientation N, probe 6 at 0.1 (unit uncertain)
[11] = biological target: 178 full-length kinases (Homo sapiens, UniProt P78368); conditions: CSNK1G2, Nluc N, probe 5 at 1 (unit uncertain)
[12] = biological target: 178 full-length kinases (Homo sapiens, UniProt Q12866); conditions: MERTK, Nluc C; read-out: Occupancy, % Replicate 2
[13] = biological target: 178 full-length kinases (Homo sapiens, UniProt Q13627); conditions: DYRK1A, Nluc N, probe 5 at 1 (unit uncertain)
[14] = biological target: 178 full-length kinases (Homo sapiens, UniProt Q13705); conditions: ACVR2B, Nluc C, probe 2 at 1 (unit uncertain)
[15] = biological target: 178 full-length kinases (Homo sapiens, UniProt Q14680); conditions: MELK, Nluc N, probe 5 at 1 (unit uncertain)
[16] = biological target: 178 full-length kinases (Homo sapiens, UniProt Q5S007); conditions: LRRK2, Nluc C
[17] = biological target: 178 full-length kinases (Homo sapiens, UniProt Q8TD19); conditions: NEK9, Nluc N, probe 5 at 1 (unit uncertain)
[18] = biological target: 178 full-length kinases (Homo sapiens, UniProt Q92772); conditions: CDKL2, Nluc N, probe 1 at 0.1 (unit uncertain)
[19] = biological target: 178 full-length kinases (Homo sapiens, UniProt Q99640); conditions: PKMYT1, Nluc C, probe 2 at 1 (unit uncertain)

178 full-length kinases (Homo sapiens, UniProt Q5S007), sequence (Q5S007 whole entry): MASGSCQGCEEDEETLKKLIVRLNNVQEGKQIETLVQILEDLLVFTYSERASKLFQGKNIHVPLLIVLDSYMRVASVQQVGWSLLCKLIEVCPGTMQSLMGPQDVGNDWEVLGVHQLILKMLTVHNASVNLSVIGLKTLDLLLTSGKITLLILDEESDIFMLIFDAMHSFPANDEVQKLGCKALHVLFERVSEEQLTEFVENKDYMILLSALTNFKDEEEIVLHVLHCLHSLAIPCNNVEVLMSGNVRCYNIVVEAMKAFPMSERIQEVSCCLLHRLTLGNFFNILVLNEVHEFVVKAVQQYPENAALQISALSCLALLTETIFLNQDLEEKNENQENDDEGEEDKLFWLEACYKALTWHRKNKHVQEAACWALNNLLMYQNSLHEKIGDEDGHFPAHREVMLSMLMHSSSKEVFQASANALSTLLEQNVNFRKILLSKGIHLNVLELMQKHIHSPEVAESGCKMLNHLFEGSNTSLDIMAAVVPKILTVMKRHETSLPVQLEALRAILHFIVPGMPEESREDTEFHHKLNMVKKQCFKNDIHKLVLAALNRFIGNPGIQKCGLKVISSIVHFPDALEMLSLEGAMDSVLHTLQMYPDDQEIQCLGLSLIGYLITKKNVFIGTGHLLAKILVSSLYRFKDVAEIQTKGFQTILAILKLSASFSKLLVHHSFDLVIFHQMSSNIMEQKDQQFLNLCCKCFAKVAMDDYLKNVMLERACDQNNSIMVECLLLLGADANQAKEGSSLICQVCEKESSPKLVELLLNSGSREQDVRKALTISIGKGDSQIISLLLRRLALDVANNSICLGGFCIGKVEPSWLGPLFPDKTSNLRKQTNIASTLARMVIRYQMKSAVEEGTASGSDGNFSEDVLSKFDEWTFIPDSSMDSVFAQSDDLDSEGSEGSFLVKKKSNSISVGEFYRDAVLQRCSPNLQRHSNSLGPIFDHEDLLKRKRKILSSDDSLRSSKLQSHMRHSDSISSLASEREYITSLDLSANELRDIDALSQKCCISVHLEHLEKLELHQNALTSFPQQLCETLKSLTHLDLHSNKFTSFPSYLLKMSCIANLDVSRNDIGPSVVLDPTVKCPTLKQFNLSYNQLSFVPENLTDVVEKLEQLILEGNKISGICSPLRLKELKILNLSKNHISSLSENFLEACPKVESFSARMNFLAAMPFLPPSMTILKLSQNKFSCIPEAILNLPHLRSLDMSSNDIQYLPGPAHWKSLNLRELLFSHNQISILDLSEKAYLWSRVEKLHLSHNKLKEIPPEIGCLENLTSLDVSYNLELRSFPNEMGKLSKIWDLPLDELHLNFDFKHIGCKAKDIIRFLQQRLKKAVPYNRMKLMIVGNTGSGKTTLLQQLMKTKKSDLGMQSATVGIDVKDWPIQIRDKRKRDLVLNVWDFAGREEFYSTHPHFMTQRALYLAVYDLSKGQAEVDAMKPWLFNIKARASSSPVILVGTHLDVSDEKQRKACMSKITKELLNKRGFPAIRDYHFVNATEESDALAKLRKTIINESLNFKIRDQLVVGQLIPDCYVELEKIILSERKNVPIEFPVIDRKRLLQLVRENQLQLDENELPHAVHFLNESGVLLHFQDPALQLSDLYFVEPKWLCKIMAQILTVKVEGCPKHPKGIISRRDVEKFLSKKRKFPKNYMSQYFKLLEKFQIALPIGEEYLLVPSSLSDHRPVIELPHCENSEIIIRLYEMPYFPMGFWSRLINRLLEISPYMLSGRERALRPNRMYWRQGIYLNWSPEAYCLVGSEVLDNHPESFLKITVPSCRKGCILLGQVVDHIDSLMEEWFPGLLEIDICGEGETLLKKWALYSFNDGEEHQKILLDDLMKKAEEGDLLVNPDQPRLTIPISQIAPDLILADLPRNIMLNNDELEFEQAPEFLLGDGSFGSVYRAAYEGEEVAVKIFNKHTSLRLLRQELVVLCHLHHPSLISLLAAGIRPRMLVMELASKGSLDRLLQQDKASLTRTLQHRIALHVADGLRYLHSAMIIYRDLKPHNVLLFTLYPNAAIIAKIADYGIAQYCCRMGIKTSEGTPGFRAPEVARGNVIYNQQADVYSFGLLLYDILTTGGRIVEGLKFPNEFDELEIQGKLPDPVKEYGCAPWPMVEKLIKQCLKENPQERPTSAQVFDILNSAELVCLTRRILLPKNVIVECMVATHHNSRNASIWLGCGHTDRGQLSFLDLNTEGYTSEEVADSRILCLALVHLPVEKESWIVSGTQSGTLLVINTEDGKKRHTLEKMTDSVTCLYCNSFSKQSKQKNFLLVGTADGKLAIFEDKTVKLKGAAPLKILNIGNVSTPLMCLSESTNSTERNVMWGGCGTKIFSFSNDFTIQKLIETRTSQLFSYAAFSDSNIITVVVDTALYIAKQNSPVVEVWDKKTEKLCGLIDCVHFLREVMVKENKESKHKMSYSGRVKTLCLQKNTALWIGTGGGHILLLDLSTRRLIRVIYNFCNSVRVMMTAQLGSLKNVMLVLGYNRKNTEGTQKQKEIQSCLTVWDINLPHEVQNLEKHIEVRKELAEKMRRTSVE
178 full-length kinases (Homo sapiens, UniProt O75460), sequence (O75460 19-977): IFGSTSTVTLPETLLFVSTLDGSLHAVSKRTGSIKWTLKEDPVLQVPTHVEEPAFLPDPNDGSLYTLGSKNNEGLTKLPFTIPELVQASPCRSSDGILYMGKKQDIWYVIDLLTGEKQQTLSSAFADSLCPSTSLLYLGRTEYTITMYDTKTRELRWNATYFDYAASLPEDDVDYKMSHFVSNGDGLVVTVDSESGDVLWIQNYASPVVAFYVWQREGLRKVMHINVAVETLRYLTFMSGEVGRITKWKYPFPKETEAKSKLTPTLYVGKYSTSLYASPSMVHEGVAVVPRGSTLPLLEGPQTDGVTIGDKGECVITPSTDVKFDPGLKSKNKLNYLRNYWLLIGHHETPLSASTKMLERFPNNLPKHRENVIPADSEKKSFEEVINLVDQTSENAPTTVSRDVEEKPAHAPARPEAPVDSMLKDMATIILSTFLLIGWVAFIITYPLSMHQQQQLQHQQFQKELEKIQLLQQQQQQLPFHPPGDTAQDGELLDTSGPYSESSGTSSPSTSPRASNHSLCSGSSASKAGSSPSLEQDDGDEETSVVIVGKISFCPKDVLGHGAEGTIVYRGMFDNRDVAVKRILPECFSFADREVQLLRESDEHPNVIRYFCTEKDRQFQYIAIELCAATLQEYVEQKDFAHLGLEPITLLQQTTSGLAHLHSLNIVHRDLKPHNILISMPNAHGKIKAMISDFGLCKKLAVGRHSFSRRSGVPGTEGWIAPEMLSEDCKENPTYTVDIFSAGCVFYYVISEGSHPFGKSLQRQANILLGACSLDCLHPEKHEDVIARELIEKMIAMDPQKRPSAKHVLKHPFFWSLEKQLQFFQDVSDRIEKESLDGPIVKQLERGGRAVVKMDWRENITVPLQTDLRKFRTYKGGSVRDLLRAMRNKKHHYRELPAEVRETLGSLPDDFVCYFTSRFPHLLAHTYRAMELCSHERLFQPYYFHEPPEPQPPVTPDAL
178 full-length kinases (Homo sapiens, UniProt P57059), sequence (P57059 whole entry): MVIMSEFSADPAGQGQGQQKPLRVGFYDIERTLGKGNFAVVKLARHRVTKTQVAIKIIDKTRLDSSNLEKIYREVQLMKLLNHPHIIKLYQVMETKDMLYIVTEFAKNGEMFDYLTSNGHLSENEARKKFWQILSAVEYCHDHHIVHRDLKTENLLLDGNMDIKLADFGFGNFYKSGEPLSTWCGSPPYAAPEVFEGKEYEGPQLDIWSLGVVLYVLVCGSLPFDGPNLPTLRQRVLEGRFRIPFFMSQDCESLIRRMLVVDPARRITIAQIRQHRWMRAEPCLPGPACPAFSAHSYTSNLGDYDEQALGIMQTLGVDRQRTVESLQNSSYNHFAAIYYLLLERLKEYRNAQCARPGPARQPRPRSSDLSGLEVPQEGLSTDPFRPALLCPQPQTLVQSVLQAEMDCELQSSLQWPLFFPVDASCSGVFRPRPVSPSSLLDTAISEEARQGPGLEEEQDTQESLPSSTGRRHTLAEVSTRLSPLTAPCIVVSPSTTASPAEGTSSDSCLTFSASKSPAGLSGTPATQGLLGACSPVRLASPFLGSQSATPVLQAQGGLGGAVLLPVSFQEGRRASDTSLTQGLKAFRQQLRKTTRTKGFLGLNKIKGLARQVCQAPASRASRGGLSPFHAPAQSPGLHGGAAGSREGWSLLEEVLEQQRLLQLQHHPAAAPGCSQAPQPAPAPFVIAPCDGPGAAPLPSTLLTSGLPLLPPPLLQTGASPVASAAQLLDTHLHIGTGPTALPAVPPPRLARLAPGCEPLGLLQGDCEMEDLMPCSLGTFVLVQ
178 full-length kinases (Homo sapiens, UniProt P27037), sequence (P27037 20-513): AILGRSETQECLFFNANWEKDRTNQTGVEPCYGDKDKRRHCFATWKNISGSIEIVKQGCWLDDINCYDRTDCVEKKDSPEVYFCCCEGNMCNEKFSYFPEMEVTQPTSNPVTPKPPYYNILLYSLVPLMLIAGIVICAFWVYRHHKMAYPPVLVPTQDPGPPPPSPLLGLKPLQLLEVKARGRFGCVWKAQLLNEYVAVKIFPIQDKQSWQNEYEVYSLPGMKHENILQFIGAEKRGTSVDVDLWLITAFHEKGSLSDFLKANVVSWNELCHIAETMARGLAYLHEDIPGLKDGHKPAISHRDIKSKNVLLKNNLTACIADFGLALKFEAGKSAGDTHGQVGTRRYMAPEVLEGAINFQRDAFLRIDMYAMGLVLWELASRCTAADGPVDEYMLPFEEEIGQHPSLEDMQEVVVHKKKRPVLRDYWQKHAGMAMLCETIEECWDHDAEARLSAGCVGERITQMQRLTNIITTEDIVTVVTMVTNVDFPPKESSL

In the case of `C[C@@H](Oc1cc(-c2cnn(C3CCNCC3)c2)cnc1N)c1c(Cl)ccc(F)c1Cl` [Crizotinib], the “Occupancy, % Replicate 1” value [1] was “No Binding”, the “Occupancy, % Replicate 2” value [1] was “No Binding” and the “Occupancy, % Replicate 1” value ([2]; replicate 1) was “No Binding”. For the same compound, the “Occupancy, % Replicate 2” value ([2]; replicate 2) was “No Binding”, the “Occupancy, % Replicate 2” value [3] was “No Binding” and the “Occupancy, % Replicate 1” value [4] was “No Binding”. For the same compound, the “Occupancy, % Replicate 2” value [4] was “No Binding”, the “Occupancy, % Replicate 1” value [5] was “No Binding” and the “Occupancy, % Replicate 1” value [6] was “No Binding”. The “Occupancy, % Replicate 2” value [6] was “No Binding”, the “Occupancy, % Replicate 1” value ([7]; replicate 1) was “No Binding” and the “Occupancy, % Replicate 2” value ([7]; replicate 2) was “No Binding”. For the same compound, the “Occupancy, % Replicate 2” value [8] was “No Binding”, the “Occupancy, % Replicate 1” value [9] was “No Binding” and the “Occupancy, % Replicate 2” value [9] was “No Binding”. The “Occupancy, % Replicate 1” value ([10]; replicate 1) was “No Binding”, the “Occupancy, % Replicate 2” value ([10]; replicate 2) was “No Binding” and the “Occupancy, % Replicate 2” value [11] was “No Binding”. For the same compound, the receptor occupancy [12] was 81%, the “Occupancy, % Replicate 1” value [13] was “No Binding” and the “Occupancy, % Replicate 2” value [13] was “No Binding”. For the same compound, the “Occupancy, % Replicate 1” value [14] was “No Binding”, the “Occupancy, % Replicate 2” value [15] was “No Binding” and the receptor occupancy ([16]; read-out: Occupancy, % Replicate 1) was 14%. The receptor occupancy ([16]; read-out: Occupancy, % Replicate 2) was 31%, the “Occupancy, % Replicate 1” value [17] was “No Binding” and the “Occupancy, % Replicate 1” value [18] was “No Binding”. The “Occupancy, % Replicate 2” value [18] was “No Binding” and the “Occupancy, % Replicate 1” value [19] was “No Binding”.
